# Molecular target: STAT3 (Homo sapiens, UniProt P40763)
# Test: STAT3 HiBiT degradation assay in transfected A549 cells
# Type: cell-based
# Set-up: expressed in transfected cells; host or cells: A549
# Conditions: A549, 24 h; read-out: STAT3 HiBiT A549 degradation 24 h: Average external-Abs DC50
# Outline: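 Transfected A549 cells (~2000/well) plated 24 h, then treated 24 h at 37 °C, 5% CO2 with a 3-fold, 10-point compound dilution. HiBiT lytic luminescence read after 10 min at room temperature; remaining STAT3 normalized to negative and positive controls, four-parameter fit. DC50 binned A <0.01, B 0.01–0.1, C 0.1–1.0, D >1.0 µM.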
# Sequence of STAT3 (P40763 whole entry): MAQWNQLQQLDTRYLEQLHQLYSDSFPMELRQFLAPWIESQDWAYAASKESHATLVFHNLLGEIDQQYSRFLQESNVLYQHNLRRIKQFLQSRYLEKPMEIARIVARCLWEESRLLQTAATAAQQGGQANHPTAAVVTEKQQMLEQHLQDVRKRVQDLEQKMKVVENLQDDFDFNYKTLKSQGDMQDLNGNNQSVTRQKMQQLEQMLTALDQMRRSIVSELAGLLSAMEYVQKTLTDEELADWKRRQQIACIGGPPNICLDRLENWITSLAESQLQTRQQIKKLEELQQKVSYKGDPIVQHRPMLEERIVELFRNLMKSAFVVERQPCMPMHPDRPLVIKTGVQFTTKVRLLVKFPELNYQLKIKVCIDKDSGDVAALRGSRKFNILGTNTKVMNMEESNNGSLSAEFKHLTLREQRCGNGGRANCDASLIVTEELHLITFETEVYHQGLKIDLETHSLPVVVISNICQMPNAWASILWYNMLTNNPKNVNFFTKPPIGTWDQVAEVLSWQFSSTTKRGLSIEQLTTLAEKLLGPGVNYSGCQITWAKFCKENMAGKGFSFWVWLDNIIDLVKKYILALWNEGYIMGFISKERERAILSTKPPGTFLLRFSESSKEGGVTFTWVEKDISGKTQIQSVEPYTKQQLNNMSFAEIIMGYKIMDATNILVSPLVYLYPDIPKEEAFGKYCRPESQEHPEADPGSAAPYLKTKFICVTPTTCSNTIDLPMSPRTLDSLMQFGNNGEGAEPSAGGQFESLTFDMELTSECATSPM
row,Compound,DC50 [nM]
1,"Cn1c(=O)n(C2CCC(=O)NC2=O)c2ccc([C@H]3CC[C@@H](CCC(=O)N4CC[C@H]5CC[C@@H](C(=O)N[C@@H](CCC(N)=O)C(=O)NC(c6ccccc6)c6ccccc6)N5C(=O)[C@@H](NC(=O)c5cc6cc(C(=O)P(=O)(O)O)ccc6[nH]5)C4)CC3)cc21 (stereo partly drawn) [Compound I-273, 2-[[(5S,8S,10aR)-8-[[(1S)-3-carbamoyl-1-(diphenylmethylcarbamoyl)propyl]carbamoyl]-6-oxo-3-[3-[(1s,4s)-4-[1-(2,6-dioxopiperidin-3-yl)-3-methyl-2-oxo-1,3-benzodiazol-5-yl]cyclohexyl]propanoyl]-octahydropyrrolo[1,2-a][1,5]diazocin-5-yl]carbamoyl]-1H-indole-5-carbonylphosphonic acid]",100 to 1000
2,"Cn1c(=O)n(C2CCC(=O)NC2=O)c2ccc([C@H]3CC[C@@H](CCCC(=O)N4CC[C@H]5CC[C@@H](C(=O)N[C@@H](CCC(N)=O)C(=O)NC(c6ccccc6)c6ccccc6)N5C(=O)[C@@H](NC(=O)c5cc6cc(C(=O)P(=O)(O)O)ccc6[nH]5)C4)CC3)cc21 (stereo partly drawn) [Compound I-274, 2-[[(5S,8S,10aR)-8-[[(1S)-3-carbamoyl-1-(diphenylmethylcarbamoyl)propyl]carbamoyl]-6-oxo-3-[4-[(1s,4r)-4-[1-(2,6-dioxopiperidin-3-yl)-3-methyl-2-oxo-1,3-benzodiazol-5-yl]cyclohexyl]butanoyl]-octahydropyrrolo[1,2-a][1,5]diazocin-5-yl]carbamoyl]-1H-indole-5-carbonylphosphonic acid]",100 to 1000
3,"Cn1c(=O)n(C2CCC(=O)NC2=O)c2ccc(CCCCCCc3cc4c5c(c3)C[C@@H](C(=O)N[C@@H](CCC(N)=O)c3ccccn3)N5C(=O)[C@@H](NC(=O)c3cc5cc(C(=O)P(=O)(O)O)ccc5[nH]3)CC4)cc21 (stereo partly drawn) [Compound I-277, 2-[[(2S,11S)-2-[[(1S)-3-carbamoyl-1-(pyridin-2-yl)propyl]carbamoyl]-6-[6-[1-(2,6-dioxopiperidin-3-yl)-3-methyl-2-oxo-1,3-benzodiazol-5-yl]hexyl]-12-oxo-1-azatricyclo[6.4.1.0^[4,13]]trideca-4(13),5,7-trien-11-yl]carbamoyl]-1H-indole-5-carbonylphosphonic acid]",10 to 100
4,"Cn1c(=O)n(C2CCC(=O)NC2=O)c2ccc([C@H]3CC[C@H](CCC(=O)N4CC[C@H]5CC[C@@H](C(=O)N[C@@H](CCC(N)=O)C(=O)NC(c6ccccc6)c6ccccc6)N5C(=O)[C@@H](NC(=O)c5cc6cc(C(=O)P(=O)(O)O)ccc6[nH]5)C4)CC3)cc21 (stereo partly drawn) [Compound I-278, 2-[[(5S,8S,10aR)-8-[[(1S)-3-carbamoyl-1-(diphenylmethylcarbamoyl)propyl]carbamoyl]-6-oxo-3-[3-[(1r,4r)-4-[1-(2,6-dioxopiperidin-3-yl)-3-methyl-2-oxo-1,3-benzodiazol-5-yl]cyclohexyl]propanoyl]-octahydropyrrolo[1,2-a][1,5]diazocin-5-yl]carbamoyl]-1H-indole-5-carbonylphosphonic acid]",100 to 1000
5,Cc1ncsc1-c1ccc([C@H](C)NC(=O)[C@@H]2C[C@@H](O)CN2C(=O)[C@@H](NC(=O)CCCCCc2cccc(OC[C@H](CCC(N)=O)NC(=O)[C@@H]3CCCN3C(=O)[C@H](CC(C)C)NC(=O)c3cc4cc(C(=O)P(=O)(O)O)ccc4[nH]3)c2F)C(C)(C)C)cc1 [Compound I-279],< 10
6,Cc1ncsc1-c1ccc([C@H](C)NC(=O)[C@@H]2C[C@@H](O)CN2C(=O)[C@@H](NC(=O)CCCCc2cccc(NC(=O)[C@H](CCC(N)=O)NC(=O)[C@@H]3Cc4cccc5c4N3C(=O)C(CC(=O)c3cc4ccc(C(=O)P(=O)(O)O)cc4[nH]3)CC5)c2)C(C)(C)C)cc1 (some centres unmarked) [Compound I-280],10 to 100
7,Cc1ncsc1-c1ccc([C@H](C)NC(=O)[C@@H]2C[C@@H](O)CN2C(=O)[C@@H](NC(=O)OCCCCc2cccc(OC[C@H](CCC(N)=O)NC(=O)[C@@H]3Cc4cccc5c4N3C(=O)[C@@H](NC(=O)c3cc4cc(C(=O)P(=O)(O)O)ccc4[nH]3)CC5)c2F)C(C)(C)C)cc1 [Compound I-281],< 10
8,Cc1ncsc1-c1ccc(C2(NC(=O)[C@@H]3C[C@@H](O)CN3C(=O)[C@@H](NC(=O)CCCc3cccc(OC[C@H](CCC(N)=O)NC(=O)[C@@H]4Cc5cccc6c5N4C(=O)[C@@H](NC(=O)c4cc5cc(C(=O)P(=O)(O)O)ccc5[nH]4)CC6)c3Cl)C(C)(C)C)CC2)cc1 [Compound I-283],10 to 100
9,"Cn1c(=O)n(C2CCC(=O)NC2=O)c2ccc(CCCCCCC(=O)N3CC[C@H]4CC[C@@H](C(=O)N[C@@H](CCC(N)=O)C(=O)NCc5ccc(S(C)(=O)=O)cc5)N4C(=O)[C@@H](NC(=O)c4cc5cc(C(=O)P(=O)(O)O)ccc5[nH]4)C3)cc21 (stereo partly drawn) [Compound I-288, 2-[[(5S,8S,10aR)-8-[[(1S)-3-carbamoyl-1-[[(4-methanesulfonylphenyl)methyl]carbamoyl]propyl]carbamoyl]-3-[7-[1-(2,6-dioxopiperidin-3-yl)-3-methyl-2-oxo-1,3-benzodiazol-5-yl]heptanoyl]-6-oxo-octahydropyrrolo[1,2-a][1,5]diazocin-5-yl]carbamoyl]-1H-indole-5-carbonylphosphonic acid]",10 to 100
10,CC(=O)N1CC[C@H]2CC[C@@H](C(=O)N[C@@H](CCC(=O)O)COc3cc(F)cc(CCCC(=O)N[C@H](C(=O)N4C[C@H](O)C[C@H]4C(=O)N[C@@H](C)c4ccc(-c5scnc5C)cc4)C(C)(C)C)c3Cl)N2C(=O)[C@@H](NC(=O)c2cc3cc(C(=O)P(=O)(O)O)ccc3[nH]2)C1 [Compound I-289],< 10
11,CC(=O)N1CC[C@H]2CC[C@@H](C(=O)N[C@@H](CCC(=O)O)COc3cc(C)cc(CCCC(=O)N[C@H](C(=O)N4C[C@H](O)C[C@H]4C(=O)N[C@@H](C)c4ccc(-c5scnc5C)cc4)C(C)(C)C)c3F)N2C(=O)[C@@H](NC(=O)c2cc3cc(C(=O)P(=O)(O)O)ccc3[nH]2)C1 [Compound I-290],< 10
12,"Cn1c(=O)n(C2CCC(=O)NC2=O)c2ccc(CC[C@H]3CC[C@@H](C(=O)N4CC[C@H]5CC[C@@H](C(=O)N[C@@H](CCC(N)=O)C(=O)NCc6ccc(S(C)(=O)=O)cc6)N5C(=O)[C@@H](NC(=O)c5cc6cc(C(=O)P(=O)(O)O)ccc6[nH]5)C4)CC3)cc21 (stereo partly drawn) [Compound I-294, (2-(((5S,8S,10aR)-8-(((S)-5-amino-1-((4-(methylsulfonyl)benzyl)amino)-1,5-dioxopentan-2-yl)carbamoyl)-3-((1r,4R)-4-(2-(1-(2,6-dioxopiperidin-3-yl)-3-methyl-2-oxo-2,3-dihydro-1H-benzo[d]imidazol-5-yl)ethyl)cyclohexane-1-carbonyl)-6-oxodecahydropyrrolo[1,2-a][1,5]diazocin-5-yl)carbamoyl)-1H-indole-5-carbonyl)phosphonic acid]",< 10
13,"CC(C)c1ccc(CNC(=O)[C@H](CCC(N)=O)NC(=O)[C@@H]2CC[C@@H]3CCN(C(=O)[C@H]4CC[C@@H](CCc5ccc6c(c5)n(C)c(=O)n6C5CCC(=O)NC5=O)CC4)C[C@H](NC(=O)c4cc5cc(C(=O)P(=O)(O)O)ccc5[nH]4)C(=O)N32)cc1 (stereo partly drawn) [Compound I-295, (2-(((5S,8S,10aR)-8-(((S)-5-amino-1-((4-isopropylbenzyl)amino)-1,5-dioxopentan-2-yl)carbamoyl)-3-((1r,4R)-4-(2-(1-(2,6-dioxopiperidin-3-yl)-3-methyl-2-oxo-2,3-dihydro-1H-benzo[d]imidazol-5-yl)ethyl)cyclohexane-1-carbonyl)-6-oxodecahydropyrrolo[1,2-a][1,5]diazocin-5-yl)carbamoyl)-1H-indole-5-carbonyl)phosphonic acid]",< 10

# Same assay, conditions: read-out: STAT3 HiBiT A549 degradation 24 h: Average external-Abs DC50; A549, 24 h
row,Compound,DC50 [nM]
1,"Cc1ncsc1-c1ccc([C@H](C)NC(=O)[C@@H]2C[C@@H](O)CN2C(=O)[C@@H](NC(=O)CCCCc2cccc(OC[C@H](CCC(N)=O)NC(=O)[C@@H]3CCCN3C(=O)[C@H](CC(C)C)NC(=O)c3cc4cc(C(=O)P(=O)(O)O)ccc4[nH]3)c2F)C(C)(C)C)cc1 [Compound I-276, diammonium 2-[[(2S)-1-[(2S)-2-[[(2S)-4-carbamoyl-1-[2-fluoro-3-(4-[[(2S)-1-[(2S,4R)-4-hydroxy-2-[[(1S)-1-[4-(4-methyl-1,3-thiazol-5-yl)phenyl]ethyl]carbamoyl]pyrrolidin-1-yl]-3,3-dimethyl-1-oxobutan-2-yl]carbamoyl]butyl)phenoxy]butan-2-yl]carbamoyl]pyrrolidin-1-yl]-4-methyl-1-oxopentan-2-yl]carbamoyl]-1H-indole-5-carbonylphosphonate]",< 10

# Reference: patent US12077555B2, “STAT degraders and uses thereof” (Kymera Therapeutics, Inc., priority 2019, dated 2024)
